From patent US20100056565A1, “Heterocyclic Derivatives as M3 Muscarinic Receptors” (priority 2007, published 2010) come the findings set out here.

What is called Ki is the dissociation constant of the complex between target and ligand, obtained from inhibition or displacement.

SMILES strings stand for the structures. Counter-ions that a name gives are not always drawn. A value given as a limit tells only on which side of the number the result lay.

The first experiment deals with T1, Recombinant human M3 receptor (Homo sapiens, UniProt P20309).
T1 construct: expressed in transfected cells; host or cells: CHO-K1 cells (membranes)
T1 sequence (P20309 whole entry): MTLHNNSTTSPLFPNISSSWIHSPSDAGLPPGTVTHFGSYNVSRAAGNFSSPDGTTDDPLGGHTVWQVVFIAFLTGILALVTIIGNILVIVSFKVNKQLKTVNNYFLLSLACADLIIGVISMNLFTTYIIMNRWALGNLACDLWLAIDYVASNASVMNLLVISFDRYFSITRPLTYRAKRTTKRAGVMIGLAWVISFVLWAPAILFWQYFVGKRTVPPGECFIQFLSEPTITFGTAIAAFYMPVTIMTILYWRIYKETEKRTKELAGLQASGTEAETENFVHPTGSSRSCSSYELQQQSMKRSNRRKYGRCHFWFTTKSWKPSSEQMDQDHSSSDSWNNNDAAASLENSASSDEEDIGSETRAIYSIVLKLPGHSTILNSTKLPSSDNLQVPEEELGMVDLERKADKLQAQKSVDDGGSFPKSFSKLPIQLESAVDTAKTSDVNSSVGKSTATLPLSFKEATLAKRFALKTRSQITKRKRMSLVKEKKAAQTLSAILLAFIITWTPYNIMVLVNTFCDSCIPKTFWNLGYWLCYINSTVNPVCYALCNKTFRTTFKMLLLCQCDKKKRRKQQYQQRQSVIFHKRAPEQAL
Nature of the experiment: biochemical. Type of experiment: binding. The conditions noted are these: M3 Ki (SPA format, SPA format). The procedure:
Recombinant human M3 receptor was expressed in CHO-K1 cells. Cell membranes were prepared and binding of [3H]-N-methyl scopolamine ([3H]-NMS) and compounds was assessed by a scintillation proximity assay (SPA). The incubation time was 16 hours at room temperature in the presence of 1% (v/v) DMSO. The assay was performed in white 96 well clear-bottomed NBS plates (Corning). Prior to the assay, the CHO cell membranes containing M3 receptor were coated onto SPA WGA (Wheat germ agglutinin) beads (GE Healthcare). Non specific binding was determined in the presence of 1 μM Atropine.
Radioactivity was measured on a Microbeta scintillation counter (PerkinElmer) using a 3H protocol with a 2 minutes per well read time. […] Concentration dependent inhibition of [3H]-NMS binding by compounds was expressed as pIC50.
`O=C(O[C@H]1C[N+]2(Cc3cnc([C@](O)(c4ccccc4)C4CCCCC4)o3)CCC1CC2)c1ccccc1` [Example 14, (R)-3-benzoyloxy-1-[2-((R)-cyclohexyl-hydroxy-phenyl-methyl)-oxazol-5-ylmethyl]-1-azonia-bicyclo[2.2.2]octane; formate]: the Ki lay in the range of 5 to 20 nM.

The same experiment, now with this note: SPA format; read-out: M3 Ki (SPA format).
On to `OC(c1ccccc1)(c1noc(C[N+]23CCC(CC2)[C@@H](OCc2ccccc2)C3)n1)C1CCCCC1` (single isomer, unassigned) [Example 30, formate], for which the Ki is less than 5 nM.

As for `OC(c1ccccc1)(c1cc(C[N+]23CCC(CC2)[C@@H](OCc2ccccc2)C3)on1)C1CCCCC1` (single isomer, unassigned) [Example 31, formate], the Ki is less than 5 nM.

For the molecule `OC(c1ccccc1)(c1ncc(C[N+]23CCC(CC2)[C@@H](OCc2ccccc2)C3)o1)C1CCCCCCC1` (single isomer, unassigned) [Example 48, formate], the Ki is less than 5 nM.

For `OC(c1ccccc1)(c1ncc(C[N+]23CCC(CC2)[C@@H](OCc2ccccc2)C3)o1)C1CCC1` (single isomer, unassigned) [Example 50, formate], the Ki is less than 5 nM.

For the molecule `OC(c1ccccc1)(c1cc(C[N+]23CCC(CC2)[C@@H](OCc2ccc(F)cc2)C3)on1)C1CCCCC1` (single isomer, unassigned) [Example 54], the Ki is less than 5 nM.

With `O[C@](c1ccccc1)(c1ncc(C[N+]23CCC(CC2)C(COc2cccc(F)c2)C3)o1)C1CCCCC1` (single isomer, unassigned) [Example 81], the Ki is less than 5 nM.

On to `O[C@](c1ccccc1)(c1ncc(C[N+]23CCC(CC2)C(COc2ccc(F)cc2)C3)o1)C1CCCCC1` (single isomer, unassigned) [Example 82], for which the Ki was less than 5 nM.

In the case of `OC(c1ccccc1)(c1ccccc1)c1ncc(C[N+]23CCC(CC2)C(COc2cccc(F)c2)C3)o1` (single isomer, unassigned) [Example 83, 3-(3-Fluoro-phenoxymethyl)-1-[2-(hydroxy-diphenyl-methyl)-oxazol-5-ylmethyl]-1-azonia-bicyclo[2.2.2]octane; bromide], the Ki was in the range of 5 to 20 nM.

Turning to `OC(c1ccccc1)(c1ccccc1)c1ncc(C[N+]23CCC(CC2)C(COc2cccc(F)c2)C3)o1` (single isomer, unassigned) [Example 84, 3-(3-Fluoro-phenoxymethyl)-1-[2-(hydroxy-diphenyl-methyl)-oxazol-5-ylmethyl]-1-azonia-bicyclo[2.2.2]octane; bromide], the Ki is less than 5 nM.

As to `O[C@](c1ccccc1)(c1ncc(C[N+]23CCC(CC2)C(COc2cccc(F)c2)C3)o1)C1CCCCC1` (single isomer, unassigned) [Example 85], the Ki is less than 5 nM.

Take `OC(c1ccccc1)(c1ccccc1)c1ncc(C[N+]23CCC(CC2)C(COc2ccc(F)cc2)C3)o1` (single isomer, unassigned) [Example 86, 3-(4-Fluoro-phenoxymethyl)-1-[2-(hydroxy-diphenyl-methyl)-oxazol-5-ylmethyl]-1-azonia-bicyclo[2.2.2]octane; bromide]: the Ki lay within 5 to 20 nM.

As for `O[C@](c1ccccc1)(c1ncc(C[N+]23CCC(CC2)C(COc2ccc(F)cc2)C3)o1)C1CCCCC1` (single isomer, unassigned) [Example 87], the Ki is less than 5 nM.

As for `C=CCOCC1C[N+]2(Cc3cnc([C@](O)(c4ccccc4)C4CCCCC4)o3)CCC1CC2` (single isomer, unassigned) [Example 89, formate], the Ki is less than 5 nM.

Consider `C=CCOCC1C[N+]2(Cc3cnc([C@](O)(c4ccccc4)C4CCCCC4)o3)CCC1CC2` (single isomer, unassigned) [Example 90, formate], for which the Ki lay within 5 to 20 nM.

Turning to `OC(c1ccccc1)(c1cc(C[N+]23CCC(CC2)C(COc2ccccc2)C3)on1)C1CCCCC1` (single isomer, unassigned) [Example 91], the Ki was less than 5 nM.

Regarding `OC(c1ccccc1)(c1cc(C[N+]23CCC(CC2)[C@@H](Oc2cccc(F)c2)C3)on1)C1CCCCC1` (single isomer, unassigned) [Example 101], the Ki is less than 5 nM.

In the case of `OC(c1ccccc1)(c1ncc(C[N+]23CCC(CC2)C(CSc2ccccc2)C3)o1)C1CCC1` (single isomer, unassigned) [Example 122], the Ki is less than 5 nM.

With `OC(c1ccccc1)(c1cc(C[N+]23CCC(CC2)C(CSc2ccccc2)C3)on1)C1CCCCC1` (single isomer, unassigned) [Example 123], the Ki was less than 5 nM.

For the molecule `OC(c1ccccc1)(c1cc(C[N+]23CCC(CC2)[C@@H](CSc2ccccc2)C3)on1)C1CCCCC1` (single isomer, unassigned) [Example 124], the Ki is less than 5 nM.

Consider `OC(c1ccccc1)(c1cc(C[N+]23CCC(CC2)C(CSc2ccc(F)cc2)C3)on1)C1CCCCC1` (single isomer, unassigned) [Example 125], for which the Ki lay in the range of 5 to 20 nM.

With `OC(c1ccccc1)(c1cc(C[N+]23CCC(CC2)[C@@H](SCc2ccccc2)C3)on1)C1CCCCC1` (single isomer, unassigned) [Example 126], the Ki is less than 5 nM.

Regarding `OC(c1ccccc1)(c1noc(C[N+]23CCC(CC2)[C@@H](SCc2ccccc2)C3)n1)C1CCCCC1` (single isomer, unassigned) [Example 127], the Ki is less than 5 nM.

On to `OC(c1ccccc1)(c1noc(C[N+]23CCC(CC2)[C@@H](Oc2cccc(F)c2)C3)n1)C1CCCCC1` (single isomer, unassigned) [Example 128], for which the Ki was less than 5 nM.

Turning to `Cc1ccc(O[C@H]2C[N+]3(Cc4nc(C(O)(c5ccccc5)C5CCCCC5)no4)CCC2CC3)cc1Cl` (single isomer, unassigned) [Example 129], the Ki is less than 5 nM.

Consider `OC(c1ccccc1)(c1noc(C[N+]23CCC(CC2)[C@@H](OCc2ccc(F)cc2)C3)n1)C1CCCCC1` (single isomer, unassigned) [Example 130], for which the Ki is less than 5 nM.

As to `OC(c1ccccc1)(c1noc(C[N+]23CCC(CC2)[C@@H](Sc2ccccc2)C3)n1)C1CCCCC1` (single isomer, unassigned) [Example 131], the Ki is less than 5 nM.

On to `OC(c1ccccc1)(c1noc(C[N+]23CCC(CC2)[C@@H](CSc2ccccc2)C3)n1)C1CCCCC1` (single isomer, unassigned) [Example 132], for which the Ki is less than 5 nM.

As to `OC(c1ccccc1)(c1noc(C[N+]23CCC(CC2)C(CSc2cccc(F)c2)C3)n1)C1CCCCC1` (single isomer, unassigned) [Example 133], the Ki was less than 5 nM.

Consider `OC(c1ccccc1)(c1cc(C[N+]23CCC(CC2)[C@@H](Oc2ccc(F)cc2)C3)on1)C1CCCCC1` (single isomer, unassigned) [Example 143], for which the Ki is less than 5 nM.

For `OC(c1ccccc1)(c1noc(C[N+]23CCC(CC2)[C@H](COc2ccccc2)C3)n1)C1CCCCC1` (single isomer, unassigned) [Example 144], the Ki was less than 5 nM.

With `O[C@@](c1ccccc1)(c1ncc(C[N+]23CCC(CC2)CC3)o1)C1CCCCC1` [Example 5, 1-[2-((S))-Cyclohexyl-hydroxy-phenyl-methyl)-oxazol-5-ylmethyl]-1-azonia-bicyclo[2.2.2]octane bromide], the inhibition constant (Ki) is less than 5 nM.

On to `O[C@@](c1ccccc1)(c1ncc(C[N+]23CCC(CC2)[C@H](Oc2ccccc2)C3)o1)C1CCCCC1` [Example 6, (S)-1-[2-((S)—Cyclohexyl-hydroxy-phenyl-methyl)-oxazol-5-ylmethyl]-3-phenoxy-1-azonia-bicyclo[2.2.2]octane bromide], for which the Ki is more than 20 nM.

In the case of `O[C@@](c1ccccc1)(c1ncc(C[N+]23CCC(CC2)[C@@H](Oc2ccccc2)C3)o1)C1CCCCC1` [Example 7, (R)-1-[2-((S)—Cyclohexyl-hydroxy-phenyl-methyl)-oxazol-5-ylmethyl]-3-phenoxy-1-azonia-bicyclo[2.2.2]octane bromide], the Ki is 5 to 20 nM.

`O[C@](c1ccccc1)(c1ncc(C[N+]23CCC(CC2)[C@H](Oc2ccccc2)C3)o1)C1CCCCC1` [Example 8, (S)-1-[2-((R)—Cyclohexyl-hydroxy-phenyl-methyl)-oxazol-5-ylmethyl]-3-phenoxy-1-azonia-bicyclo[2.2.2]octane; bromide]: the Ki fell in the range of 5 to 20 nM.

Turning to `O[C@](c1ccccc1)(c1ncc(C[N+]23CCC(CC2)[C@@H](Oc2ccccc2)C3)o1)C1CCCCC1` [Example 9, (R)-[2-((R)—Cyclohexyl-hydroxy-phenyl-methyl)-oxazol-5-ylmethyl]-3-phenoxy-1-azonia-bicyclo[2.2.2]octane; bromide], the Ki is less than 5 nM.

In the case of `O[C@](c1ccccc1)(c1ncc(C[N+]23CCC(CC2)[C@@H](OCc2ccccc2)C3)o1)C1CCCCC1` [Example 12, (R)-3-(Benzyloxy)-1-[2-(R)-cyclohexyl-hydroxy-phenyl-methyl)-oxazol-5-ylmethyl]-1-azonia-bicyclo[2.2.2]octane; bromide], the Ki was less than 5 nM.

Regarding `O=C(N[C@H]1C[N+]2(Cc3cnc([C@](O)(c4ccccc4)C4CCCCC4)o3)CCC1CC2)c1ccccc1` [Example 13, (R)-3-benzoylamino-1-[2-((R)-cyclohexyl-hydroxy-phenyl-methyl)-oxazol-5-ylmethyl]-1-azonia-bicyclo[2.2.2]octane; formate], the Ki is more than 20 nM.

Take `O=C(N[C@@H]1C[N+]2(Cc3cnc([C@](O)(c4ccccc4)C4CCCCC4)o3)CCC1CC2)c1ccccc1` [Example 15, (S)-3-Benzoylamino-1-[2-((R)-cyclohexyl-hydroxy-phenyl-methyl)-oxazol-5-ylmethyl]-1-azonia-bicyclo[2.2.2]octane; formate]: the Ki is less than 5 nM.
